Measured values as given in patent US7879848B2, “Dipeptidyl Peptidase-IV inhibiting compounds, method of preparing the same, and pharmaceutical compositions containing the same as an active agent” (LG Life Sciences, Ltd., priority 2005, dated 2011).

Target: T1, Dipeptidyl Peptidase-IV (DPP-IV) (Homo sapiens, UniProt P27487)
T1 construct: made in house
Test: Measurement of DPP-IV Activity-Inhibiting Ability (fluorescent substrate Ac-Gly-Pro-AFC)
Format: biochemical
Settings: 25° C., 50 mmol HEPES (pH 7.4), DP-IV 7.1 nM, enzyme reaction for 1 hour
Description: Dipeptidyl Peptidase-IV (DPP-IV), known as serine protease, was obtained by a modification of the known method (Tanaka T. et al, Proc. Natl. Acad. Sci. USA, (1994) 91, 3082-3086), which comprises cloning, purification by use of Baculo-Virus and activation steps. DPP-IV was used to test the pharmaceutical efficacy of candidate inhibitors as follows. The cloned DP-IV was expressed in Baculo-Virus, which was purified by nickel column and then subjected to dialysis. The inhibitors synthesized in Examples were tested to determine the binding activity there of using a fluorescent substrate, Ac-Gly-Pro-AFC. Enzyme reactions were conducted for various concentrations of inhibitors, using 100 µM Ac-Gly-Pro-AFC at 25° C. in a buffer solution containing 50 mmol HEPES (pH 7.4), with the concentration of DP-IV being 7.1 nM. […] As the fluorescent spectrometer, Spectra MAX GeminiXS fluorescent spectrometer from Molecular Device Co. was used and the excitation frequency and emission frequency were set to 400 nm and 505 nm, respectively.

T1 sequence (P27487 whole entry): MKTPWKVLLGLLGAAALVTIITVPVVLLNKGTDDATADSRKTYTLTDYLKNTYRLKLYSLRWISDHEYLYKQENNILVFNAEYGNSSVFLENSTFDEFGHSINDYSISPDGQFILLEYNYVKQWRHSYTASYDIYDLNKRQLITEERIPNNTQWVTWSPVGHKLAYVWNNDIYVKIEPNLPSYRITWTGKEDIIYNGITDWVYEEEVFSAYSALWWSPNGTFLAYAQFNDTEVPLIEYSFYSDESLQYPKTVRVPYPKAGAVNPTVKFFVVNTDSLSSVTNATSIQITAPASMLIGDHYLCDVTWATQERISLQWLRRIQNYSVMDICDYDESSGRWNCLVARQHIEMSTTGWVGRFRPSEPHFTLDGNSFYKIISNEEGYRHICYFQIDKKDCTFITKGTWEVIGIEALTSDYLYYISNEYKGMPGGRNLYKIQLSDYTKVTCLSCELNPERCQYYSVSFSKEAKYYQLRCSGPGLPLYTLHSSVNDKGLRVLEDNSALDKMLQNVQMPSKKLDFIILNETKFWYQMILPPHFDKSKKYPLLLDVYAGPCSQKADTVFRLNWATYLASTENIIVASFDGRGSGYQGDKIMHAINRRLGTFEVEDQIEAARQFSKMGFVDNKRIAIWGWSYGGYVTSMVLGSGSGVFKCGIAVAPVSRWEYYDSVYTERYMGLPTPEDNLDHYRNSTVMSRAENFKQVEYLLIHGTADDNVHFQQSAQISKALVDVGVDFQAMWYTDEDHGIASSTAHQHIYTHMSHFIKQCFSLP

N[C@@H](CC(=O)N1CCc2c(nc(C3CCC3)nc2C(F)(F)F)C1)CN1CC(F)(F)CCC1=O [Ex. 113, 1-{(2S)-2-amino-4-[2-cyclobutyl-4-(trifluoromethyl)-5,8-dihydropyrido[3,4-d]pyrimidin-7(6H)-yl]-4-oxobutyl}-5,5-difluoropiperidin-2-one]
IC50: 13 nM

C[C@@H]1CCC(=O)N(C[C@@H](N)CC(=O)N2CCc3c(nc(-c4ccsc4)nc3C(F)(F)F)C2)C1 [Ex. 60, (5R)-1-{(2S)-2-amino-4-oxo-4-[2-(3-thienyl)-4-(trifluoromethyl)-5,8-dihydropyrido[3,4-d]pyrimidin-7(6H)-yl]butyl}-5-methylpiperidin-2-one]
IC50: 61 nM

C[C@H]1CN(C[C@@H](N)CC(=O)N2CCc3c(nc(C(C)(C)C)nc3C(F)(F)F)C2)C(=O)CO1 [Ex. 93]
IC50: 55 nM

N[C@@H](CC(=O)N1CCc2c(nc(CC3CC3)nc2C(F)(F)F)C1)CN1CC(F)(F)CCC1=O [Ex. 55, 1-{(2S)-2-amino-4-[2-(cyclopropylmethyl)-4-(trifluoromethyl)-5,8-dihydropyrido[3,4-d]pyrimidin-7(6H)-yl]-4-oxobutyl}-5,5-difluoropiperidin-2-one]
IC50: 20 nM

C[C@@H]1CCC(=O)N(C[C@@H](N)CC(=O)N2CCc3c(nc(Cc4ccc(F)cc4)nc3C(F)(F)F)C2)C1 [Ex. 58, (5R)-1-{(2S)-2-amino-4-[2-(4-fluorobenzyl)-4-(trifluoromethyl)-5,8-dihydropyrido[3,4-d]pyrimidin-7(6H)-yl]-4-oxobutyl}-5-methylpiperidin-2-one]
IC50: 14 nM

C[C@@H]1CCC(=O)N(C[C@@H](N)CC(=O)N2CCc3c(nc(-c4ccc(F)c(F)c4)nc3C(F)(F)F)C2)C1 [Ex. 37, (5R)-1-{(2S)-2-amino-4-[2-(3,4-difluorophenyl)-4-(trifluoromethyl)-5,8-dihydropyrido[3,4-d]pyrimidin-7(6H)-yl]-4-oxobutyl}-5-methylpiperidin-2-one]
IC50: 36 nM

C[C@H]1CN(C[C@@H](N)CC(=O)N2CCc3sc(-c4ccc(F)cc4)nc3C2)C(=O)CO1 [Ex. 45, (6S)-4-{(2S)-2-amino-4-oxo-4-[2-(4-fluorophenyl)6,7-dihydro[1,3]thiazolo[4,5,c]pyridin-5(4H)-yl]butyl}-6-methylmorpholine-3-one]
IC50: 22 nM

N[C@@H](CC(=O)N1CCc2c(nc(-c3ccccc3)nc2C(F)(F)F)C1)CN1CC(F)(F)CCC1=O [Ex. 24, 1-{(2S)-2-amino-4-oxo-4-[2-phenyl-4-(trifluoromethyl)-5,8-dihydropyrido[3,4-d]pyrimidin-7(6H)-yl]butyl}-5,5-difluoropiperidin-2-one]
IC50: 66 nM

C[C@H]1CN(C[C@@H](N)CC(=O)N2CCc3c(nc(C4CC4)nc3C(F)(F)F)C2)C(=O)CO1 [Ex. 27, (6S)-4-{(2S)-2-amino-4-[2-cyclopropyl-4-(trifluoromethyl)-5,8-dihydropyrido[3,4-d]pyrimidin-7(6H)-yl]-4-oxobutyl}-6-methylmorpholine-3-one]
IC50: 28 nM

C[C@@H]1CCC(=O)N(C[C@@H](N)CC(=O)N2CCc3c(nc(CF)nc3C(F)(F)F)C2)C1 [Ex. 101, (5R)-1-{(2S)-2-amino-4-[2-(fluoromethyl)-4-(trifluoromethyl)-5,8-dihydropyrido[3,4-d]pyrimidin-7(6H)-yl]-4-oxobutyl}-5-methylpiperidin-2-one]
IC50: 21 nM

CC1=CC(=O)N(C[C@@H](N)CC(=O)N2CCc3c(nc(C(F)(F)F)nc3C(F)(F)F)C2)C1 [Ex. 103, 1-{(2S)-2-amino-4-[2,4-bis(trifluoromethyl)-5,8-dihydropyrido[3,4-d]pyrimidin-7(6H)-yl]-4-oxobutyl}-4-methyl-1,5-dihydro-2H-pyrrol-2-one]
IC50: 74 nM

N[C@@H](CC(=O)N1CCn2c(nnc2C(F)(F)C(F)(F)F)C1)CN1CC(F)(F)CCC1=O [Ex. 89, 1-{(2S)-2-amino-4-oxo-4-[3-(pentafluoroethyl)-5,6-dihydro[1,2,4]triazolo[4,3-a]pyrazin-7(8H)-yl]butyl}-5,5-difluoropiperidin-2-one]
IC50: 214 nM

C[C@@H]1CCC(=O)N(C[C@@H](N)CC(=O)N2CCc3c(nc(C4CCC4)nc3C(F)(F)F)C2)C1 [Ex. 112, (5R)-1-{(2S)-2-amino-4-[2-cyclobutyl-4-(trifluoromethyl)-5,8-dihydropyrido[3,4-d]pyrimidin-7(6H)-yl]-4-oxobutyl}-5-methylpiperidin-2-one]
IC50: 10 nM

C[C@@H]1CCC(=O)N(C[C@@H](N)CC(=O)N2CCc3c(nc(-c4cccnc4)nc3C(F)(F)F)C2)C1 [Ex. 70, (5R)-1-{(2S)-2-amino-4-oxo-4-[2-pyridin-3-yl-4-(trifluoromethyl)-5,8-dihydropyrido[3,4-d]pyrimidin-7(6H)-yl]butyl}-5-methylpiperidin-2-one]
IC50: 8 nM

Cc1nc2c(c(C(F)(F)F)n1)CCN(C(=O)C[C@H](N)CN1CC(F)(F)CCC1=O)C2 [Ex. 85, 1-{(2S)-2-amino-4-[2-methyl-4-(trifluoromethyl)-5,8-dihydropyrido[3,4-d]pyrimidin-7(6H)-yl]-4-oxobutyl}-5,5-difluoropiperidin-2-one]
IC50: 16 nM

C[C@H]1CCC(=O)N(C[C@@H](N)CC(=O)N2CCn3c(nnc3C(F)(F)F)C2)C1 [Ex. 79, (5S)-1-{(2S)-2-amino-4-oxo-4-[3-(trifluoromethyl)-5,6-dihydro[1,2,4]triazolo[4,3-a]pyrazin-7(8H)-yl]butyl}-5-methylpiperidin-2-one]
IC50: 385 nM

CC1CN(C[C@@H](N)CC(=O)N2CCn3c(nnc3C(F)(F)F)C2)C(=O)CO1 (stereo partly drawn) [Ex. 16, 4-[2S-amino-4-oxo-4-(3-trifluoromethyl-5,6-dihydro-8H-[1,2,4]triazolo[4,3-a]pyrazin-7-yl)-butyl]-6-methyl-morpholin-3-one]
IC50: 66 nM

CC(C)c1nc2c(c(C(F)(F)F)n1)CCN(C(=O)C[C@H](N)CN1CC(F)(F)CCC1=O)C2 [Ex. 74, 1-{(2S)-2-amino-4-[2-isopropyl-4-(trifluoromethyl)-5,8-dihydropyrido[3,4-d]pyrimidin-7(6H)-yl]-4-oxobutyl}-5,5-difluoropiperidin-2-one]
IC50: 26 nM

C[C@H]1CN(C[C@@H](N)CC(=O)N2CCc3c(nc(-c4cccc(F)c4)nc3C(F)(F)F)C2)C(=O)CO1 [Ex. 33]
IC50: 170 nM

C[C@@H]1CCC(=O)N(C[C@@H](N)CC(=O)N2CCc3c(nc(C4CC4)nc3C(F)(F)F)C2)C1 [Ex. 26, 1-{(2S)-2-amino-4-[2-cyclopropyl-4-(trifluoromethyl)-5,8-dihydropyrido[3,4-d]pyrimidin-7(6H)-yl]-4-oxobutyl}-5-methylpiperidin-2-one]
IC50: 5 nM

N[C@@H](CC(=O)N1CCn2c(nnc2C(F)(F)F)C1)CN1CCC(C(F)(F)F)CC1=O (stereo partly drawn) [Ex. 14, 1-[2S-amino-4-oxo-4-(3-trifluoromethyl-5,6-dihydro-8H-[1,2,4]triazolo[4,3-a]pyrazin-7-yl)-butyl]-4-trifluoromethyl-piperidin-2-one]
IC50: 217 nM

C[C@@H]1CCC(=O)N(C[C@@H](N)CC(=O)N2CCc3c(nc(-c4ccncc4)nc3C(F)(F)F)C2)C1 [Ex. 56, (5R)-1-{(2S)-2-amino-4-oxo-4-[2-pyridin-4-yl-4-(trifluoromethyl)-5,8-dihydropyrido[3,4-d]pyrimidin-7(6H)-yl]butyl}-5-methylpiperidin-2-one]
IC50: 11 nM

CC1CC(=O)N(C[C@@H](N)CC(=O)N2CCc3c(nc(C(F)(F)F)nc3C(F)(F)F)C2)C1 (stereo partly drawn) [Ex. 105, 1-{(2S)-2-amino-4-[2,4-bis(trifluoromethyl)-5,8-dihydropyrido[3,4-d]pyrimidin-7(6H)-yl]-4-oxobutyl}-4-methyloxopyrrolidin-2-one]
IC50: 59 nM

CCc1nc2c(c(C(F)(F)F)n1)CCN(C(=O)C[C@H](N)CN1C[C@H](C)CCC1=O)C2 [Ex. 95, (5R)-1-{(2S)-2-amino-4-[2-ethyl-4-(trifluoromethyl)-5,8-dihydropyrido[3,4-d]pyrimidin-7(6H)-yl]-4-oxobutyl}-5-methylpiperidin-2-one]
IC50: 13 nM

N[C@@H](CC(=O)N1CCc2ccccc2C1)CN1CCCCC1=O [Ex. 17, 1-[2S-amino-4-(3,4-dihydro-1H-isoquinolin-2-yl)-4-oxo-butyl]-piperidin-2-one]
IC50: 2020 nM

CCc1nc2c(c(C(F)(F)F)n1)CCN(C(=O)C[C@H](N)CN1CC(F)(F)CCC1=O)C2 [Ex. 72, 1-{(2S)-2-amino-4-[2-ethyl-4-(trifluoromethyl)-5,8-dihydropyrido[3,4-d]pyrimidin-7(6H)-yl]-4-oxobutyl}-5,5-difluoropiperidin-2-one]
IC50: 23 nM

N[C@@H](CC(=O)N1CCc2sc(-c3ccc(F)cc3)nc2C1)CN1CC(F)(F)CCC1=O [Ex. 46, 1-{(2S)-2-amino-4-[2-(4-fluorophenyl)-6,7-dihydro[1,3]thiazolo[4,5,c]pyridin-5(4H)-yl]-4-oxobutyl}-5,5-difluoropiperidin-2-one]
IC50: 22 nM

N[C@@H](CC(=O)N1CCn2c(nnc2C(F)(F)F)C1)CN1CC(C(F)(F)F)CC1=O (stereo partly drawn) [Ex. 13, 1-[2S-amino-4-oxo-4-(3-trifluoromethyl-5,6-dihydro-8H-[1,2,4]triazolo[4,3-a]pyrazin-7-yl)-butyl]-4-trifluoromethyl-pyrrolidin-2-one]
IC50: 378 nM

C[C@@H]1CCC(=O)N(C[C@@H](N)CC(=O)N2CCc3c(nc(-c4cccs4)nc3C(F)(F)F)C2)C1 [Ex. 62, (5R)-1-{(2S)-2-amino-4-oxo-4-[2-(2-thienyl)-4-(trifluoromethyl)-5,8-dihydropyrido[3,4-d]pyrimidin-7(6H)-yl]butyl}-5-methylpiperidin-2-one]
IC50: 32 nM
